Assay results published in patent publication US20050277645A1, “Sleep inducing compounds and methods relating thereto” (Neurocrine Biosciences, Inc., priority 2004, published 2005).

Target: T1, human H1 receptor (Homo sapiens, UniProt P35367)
T1 construct: expressed in transfected cells; host or cells: CHO cells (crude membranes)
Assay: Human histamine H1 receptor binding assay
Conditions: competition with 1.5 nM [pyridinyl-5-3H]Pyrilamine, crude membranes of CHO cells transfected with human H1 receptor; Ki from IC50 by Cheng-Prusoff
Experimental: Compounds of the present invention may be evaluated for binding to the histamine H1 receptor by a standard binding assay. […] Non-specific binding is determined in the presence of excess (1 μM) doxepin. Bound and free ligand are separated by rapid vacuum filtration using a Packard 96-well cell harvester onto UniFilter GF/C filter plates (PerkinElmer) that has been pretreated with 1% polyethyleneimine. The filter plates are then washed with 600 μl phosphate buffered saline containing 0.01% (v/v) Triton-X100. Bound radioligand is determined by scintillation counting using a TopCount-NXT (Packard). Binding data is analyzed by nonlinear, least-squares curve fitting algorithms using GraphPad Prism (GraphPad Software, Inc. San Diego, Calif.) or ActivityBase (IDBS, Guildford, Surrey, UK).

T1 sequence (P35367 whole entry): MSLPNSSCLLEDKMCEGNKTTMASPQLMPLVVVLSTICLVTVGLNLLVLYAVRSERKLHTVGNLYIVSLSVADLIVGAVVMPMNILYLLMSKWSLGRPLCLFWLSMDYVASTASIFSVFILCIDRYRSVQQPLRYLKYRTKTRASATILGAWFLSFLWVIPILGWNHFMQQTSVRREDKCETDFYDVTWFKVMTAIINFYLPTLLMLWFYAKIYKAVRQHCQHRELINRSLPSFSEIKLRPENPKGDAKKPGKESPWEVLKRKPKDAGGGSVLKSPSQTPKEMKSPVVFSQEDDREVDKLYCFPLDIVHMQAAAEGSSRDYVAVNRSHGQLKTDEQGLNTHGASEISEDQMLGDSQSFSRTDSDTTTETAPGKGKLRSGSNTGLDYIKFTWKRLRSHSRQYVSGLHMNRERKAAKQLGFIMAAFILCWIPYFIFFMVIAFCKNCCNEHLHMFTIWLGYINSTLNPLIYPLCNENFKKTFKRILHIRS

| Compound | Ki [nM] |
| --- | --- |
| CNCCC1=C(C(C)c2nc(C)cs2)c2ccccc2C1 (stereo not shown) [15-6] | ≤ 250 |
| CC(CC1=C(Cc2cnccn2)c2ccccc2C1)N1CCCC1 (stereo not shown) [18-4] | ≤ 250 |
| COc1ccc2c(c1)CC(CCN(C)C)=C2Cc1cccnn1 [4-42] | ≤ 250 |
| c1ccc2c(c1)CC(CCN1CCCC1)=C2Cc1cnccn1 [21-7] | ≤ 250 |
| CC(C1=C(CCN(C)C)Cc2cc(Cl)ccc21)c1nccs1 (single isomer, unassigned) [23-2, {2-[6-chloro-3-(1-thiazol-2-yl-ethyl)-1H-inden-2-yl]-ethyl}-dimethyl-amine] | ≤ 250 |
| CC(C1=C(CCN(C)C)Cc2ccccc21)c1ncc(-c2ccccc2)o1 (stereo not shown) [9-1, dimethyl-(2-{3-[1-(5-phenyl-oxazol-2-yl)-ethyl]-1H-inden-2-yl}-ethyl)-amine] | ≤ 250 |
| CC(CC1=C(Cc2cccnn2)c2ccccc2C1)N1CCCC1 (stereo not shown) [18-5] | ≤ 250 |
| CNCCC1=C([C@@H](C)c2cnccn2)c2ccccc2C1 [15-2, methyl-{2-[3-((R)-1-pyrazin-2-yl-ethyl)-1H-inden-2-yl]-ethyl}-amine] | ≤ 250 |
| COc1ccc2c(c1)CC(CCN1CCC1)=C2[C@@H](C)c1cnccn1 [21-2] | ≤ 250 |
| CCN(C)CCC1=C(Cc2cnccn2)c2ccccc2C1 [16-1, ethyl-methyl-[2-(3-pyrazin-2-ylmethyl-1H-inden-2-yl)-ethyl]-amine] | ≤ 250 |
| CCCN(C)CCC1=C(Cc2cnccn2)c2ccccc2C1 [16-2] | ≤ 250 |
| c1cnnc(CC2=C(CCN3CCCC3)Cc3ccccc32)c1 [21-8] | ≤ 250 |
| COc1nccnc1[C@@H](C)C1=C(CCN(C)C)Cc2cc(Cl)ccc21 [4-22] | ≤ 250 |
| CCOCC(C)C1=C(CCN(C)C)Cc2ccccc21 (stereo not shown) [6-1, {2-[3-(2-ethoxy-1-methyl-ethyl)-1H-inden-2-yl]-ethyl}-dimethyl-amine] | ≤ 250 |
| CNCCC1=C(Cc2cnccn2)c2ccccc2C1 [15-4, methyl-[2-(3-pyrazin-2-ylmethyl-1H-inden-2-yl)-ethyl]-amine] | ≤ 250 |
| Fc1ccc2c(c1)CC(CCN1CCCC1)=C2Cc1cccnn1 [19-1, 3-[5-fluoro-2-(2-pyrrolidin-1-yl-ethyl)-3H-inden-1-ylmethyl]-pyridazine] | ≤ 250 |
| CC1CN=C(C(C)C2=C(CCN(C)C)Cc3ccccc32)O1 (stereo not shown) [12-1, dimethyl-(2-{3-[1-(5-methyl-4,5-dihydro-oxazol-2-yl)-ethyl]-1H-inden-2-yl}-ethyl)-amine] | ≤ 250 |
| COC(=O)C(C)C1=C(CCN(C)C)Cc2ccccc21 (stereo not shown) [7-3] | ≤ 250 |
| CC(C1=C(CCN(C)C)Cc2ccccc21)c1ccncn1 (stereo not shown) [4-2] | ≤ 250 |
| COc1ccc2c(c1)CC(CCN1CCC1)=C2C(C)c1cnccn1 (stereo not shown) [21-1, 2-{1-[2-(2-azetidin-1-yl-ethyl)-5-methoxy-3H-inden-1-yl]-ethyl}-pyrazine] | ≤ 250 |
| Cc1nnc(C(C)C2=C(CCN(C)C)Cc3ccccc32)s1 (stereo not shown) [14-1, dimethyl-(2-{3-[1-(5-methyl-[1,3,4]thiadiazol-2-yl)-ethyl]-1H-inden-2-yl}-ethyl)-amine] | ≤ 250 |
| COc1ccc2c(c1)C(C(C)c1nccs1)=C(CCN(C)C)C2 (single isomer, unassigned) [25-2, {2-[5-methoxy-3-(1-thiazol-2-yl-ethyl)-1H-inden-2-yl]-ethyl}-dimethyl-amine] | ≤ 250 |
| CC(C(=O)OC(C)(C)C)C1=C(CCN(C)C)Cc2ccccc21 (stereo not shown) [7-1, 2-[2-(2-dimethylamino-ethyl)-3H-inden-1-yl]-propionic acid tert-butyl ester] | ≤ 250 |
| CC(C1=NCCO1)C1=C(CCN(C)C)Cc2ccccc21 (stereo not shown) [13-1, (2-{3-[1-(4,5-dihydro-oxazol-2-yl)-ethyl]-1H-inden-2-yl}-ethyl)-dimethyl-amine] | ≤ 250 |
| CCOc1nccnc1C(C)C1=C(CCN(C)C)Cc2cc(F)ccc21 (stereo not shown) [4-38] | ≤ 250 |
| COc1nccnc1[C@H](C)C1=C(CCN(C)C)Cc2cc(Cl)ccc21 [4-23] | ≤ 250 |

| Compound | Ki [nM] |
| --- | --- |
| CN(C)CCC1=C(C(C)(C)c2cnccn2)c2ccccc2C1 [4-12] | ≤ 250 |
| Cc1ccc2c(c1)CC(CCN(C)C)=C2Cc1cccnn1 [4-25] | ≤ 250 |
| CCCOc1cncc(CC2=C(CCN(C)C)Cc3ccccc32)n1 [4-17] | ≤ 250 |
| O[C@H]1CCN(CCC2=C(Cc3cccnn3)c3ccc(F)cc3C2)C1 [19-4] | ≤ 250 |
| COc1ccc2c(c1)CC(CCN1CCCC1)=C2Cc1cnccn1 [21-5] | ≤ 250 |
| Fc1ccc2c(c1)CC(CCN1CCC1)=C2Cc1cccnn1 [20-1, 3-[2-(2-azetidin-1-yl-ethyl)-5-fluoro-3H-inden-1-ylmethyl]-pyridazine] | ≤ 250 |
| CC(C1=C(CCN(C)C)Cc2ccccc21)c1ncc(-c2ccccc2)s1 (stereo not shown) [10-1, dimethyl-(2-{3-[1-(5-phenyl-thiazol-2-yl)-ethyl]-1H-inden-2-yl}-ethyl)-amine] | ≤ 250 |
| CC(CC1=C(Cc2cnccn2)c2ccccc2C1)N(C)C (stereo not shown) [18-1, dimethyl-[1-methyl-2-(3-pyrazin-2-ylmethyl-1H-inden-2-yl)-ethyl]-amine] | ≤ 250 |
| Cc1csc([C@H](C)C2=C(CCN(C)C)Cc3cc(Cl)ccc32)n1 [22-5] | ≤ 250 |
| CN(CCO)CCC1=C(Cc2cnccn2)c2ccccc2C1 [16-3] | ≤ 250 |
| Cc1cnc(C(C)C2=C(CCN(C)C)Cc3ccccc32)s1 (stereo not shown) [10-2, dimethyl-(2-{3-[1-(5-methyl-thiazol-2-yl)-ethyl]-1H-inden-2-yl}-ethyl)-amine] | ≤ 250 |
| CNCCC1=C(C(C)c2cnccn2)c2ccc(C)cc2C1 (stereo not shown) [15-5] | ≤ 250 |
| Cc1nnc(C(C)C2=C(CCN(C)C)Cc3ccccc32)o1 (stereo not shown) [8-1, dimethyl-(2-{3-[1-(5-methyl-[1,3,4]oxadiazol-2-yl)-ethyl]-1H-inden-2-yl}-ethyl)-amine] | ≤ 250 |
| Fc1ccc2c(c1)CC(CCN1CCOCC1)=C2Cc1cccnn1 [19-2] | ≤ 250 |
| COc1ccc2c(c1)CC(CCN1CCCC1)=C2Cc1cccnn1 [21-6] | ≤ 250 |
| CC(C#N)C1=C(CCN(C)C)Cc2cc(Cl)ccc21 (stereo not shown) [23-1, 2-[5-chloro-2-(2-dimethylamino-ethyl)-3H-inden-1-yl]-propionitrile] | ≤ 250 |
| CCOc1nccnc1CC1=C(CCN(C)C)Cc2ccccc21 [4-16] | ≤ 250 |
| CC(C1=C(CCN(C)C)Cc2ccccc21)c1nnc(-c2ccccc2)s1 (stereo not shown) [14-2] | ≤ 250 |
| COCC(C)C1=C(CCN(C)C)Cc2ccccc21 (stereo not shown) [6-2] | ≤ 250 |
| c1ccc2c(c1)CC(CCN1CCC1)=C2Cc1cnccn1 [21-10] | ≤ 250 |
| CC(C1=C(CCN(C)C)Cc2ccccc21)c1nnc(-c2ccccc2)o1 (stereo not shown) [8-2] | ≤ 250 |
| COc1ccc2c(c1)CC(CCN1CCOCC1)=C2Cc1cnccn1 [21-9] | ≤ 250 |
| CCC(C1=C(CCN(C)C)Cc2cc(F)ccc21)c1nccnc1OC (stereo not shown) [4-39] | ≤ 250 |
| Cc1cnc(C(C)C2=C(CCN(C)C)Cc3ccccc32)o1 (stereo not shown) [11-1] | ≤ 250 |
| O[C@@H]1CCN(CCC2=C(Cc3cccnn3)c3ccc(F)cc3C2)C1 [19-3] | ≤ 250 |
| COc1nccnc1C(C)C1=C(CCN(C)C)Cc2cc(Cl)ccc21 (stereo not shown) [4-20] | ≤ 250 |
